From patent US20120094964A1, “SULFAMOYL BENZOIC ACID DERIVATIVES AS TRPM8 ANTAGONISTS” (priority 2009, published 2012)

Target: T1, human TRPM8 (Homo sapiens, UniProt Q7Z2W7)
T1 construct: expressed in transfected cells
Test: In Vitro human TRPM8 Functional Assay (intracellular Ca2+, Fluo4, FDSS, menthol activation)
Type: cell-based
Details: HEK293 cells stably expressing human TRPM8; activation with L-(-)-Menthol; 11-point dose-response
Procedure, shortened: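 Fluo4-loaded HEK293 cells stably expressing TRPM8 were preincubated with compound for 5 min at room temperature, then stimulated with L-menthol (20 μl of 90 μM stock) while fluorescence was read. IC50 values come from 11-point curves fitted to the mean of duplicate wells.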

T1 sequence (Q7Z2W7 whole entry): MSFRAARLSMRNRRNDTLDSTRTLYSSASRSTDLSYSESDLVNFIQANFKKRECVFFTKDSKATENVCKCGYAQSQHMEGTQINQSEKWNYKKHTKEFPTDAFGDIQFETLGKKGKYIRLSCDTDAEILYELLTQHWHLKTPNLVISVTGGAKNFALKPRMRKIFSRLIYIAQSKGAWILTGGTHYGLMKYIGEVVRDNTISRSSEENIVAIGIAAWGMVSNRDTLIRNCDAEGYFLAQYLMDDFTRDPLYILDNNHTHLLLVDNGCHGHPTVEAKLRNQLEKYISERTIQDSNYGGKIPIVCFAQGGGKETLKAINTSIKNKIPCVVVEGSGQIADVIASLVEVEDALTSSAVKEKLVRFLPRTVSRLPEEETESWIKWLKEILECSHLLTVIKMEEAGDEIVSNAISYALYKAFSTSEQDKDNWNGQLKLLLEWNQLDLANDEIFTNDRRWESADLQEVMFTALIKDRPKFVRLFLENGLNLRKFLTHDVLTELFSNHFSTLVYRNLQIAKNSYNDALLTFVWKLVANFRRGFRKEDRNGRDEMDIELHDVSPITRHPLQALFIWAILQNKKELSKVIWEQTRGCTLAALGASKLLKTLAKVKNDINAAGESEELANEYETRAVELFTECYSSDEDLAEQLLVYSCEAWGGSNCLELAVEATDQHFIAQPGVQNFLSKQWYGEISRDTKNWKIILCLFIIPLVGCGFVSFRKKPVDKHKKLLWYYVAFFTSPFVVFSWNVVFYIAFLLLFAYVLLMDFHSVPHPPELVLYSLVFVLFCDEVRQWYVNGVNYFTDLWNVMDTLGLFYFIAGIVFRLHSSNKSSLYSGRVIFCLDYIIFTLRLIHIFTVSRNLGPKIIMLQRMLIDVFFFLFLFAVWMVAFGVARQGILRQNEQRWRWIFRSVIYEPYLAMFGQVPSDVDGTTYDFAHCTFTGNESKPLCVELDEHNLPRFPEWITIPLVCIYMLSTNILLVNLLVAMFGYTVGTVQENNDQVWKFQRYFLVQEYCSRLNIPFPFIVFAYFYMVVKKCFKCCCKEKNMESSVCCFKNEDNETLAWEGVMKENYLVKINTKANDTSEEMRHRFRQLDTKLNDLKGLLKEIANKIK

Row | SMILES | IC50 [nM]
1 | COc1ccc(N(C(C)c2ccc(Cl)cc2)S(=O)(=O)c2ccccc2)cc1 (centres unmarked) [Example 87, N-(1-(4-Chlorophenyl)ethyl)-N-(4-methoxyphenyl) benzenesulfonamide] | 1000 to 10000
2 | COc1ccc(C(C)N(c2ccc(OC)cc2)S(=O)(=O)c2ccc(C)c(Cl)c2)cc1 (centres unmarked) [Example 137, 3-Chloro-N-(4-methoxyphenyl)-N-(1-(4-methoxy-phenyl)ethyl)-4-methyl benzenesulfonamide] | 10000 to 30000
3 | O=C(O)c1ccc(S(=O)(=O)N(CCOc2ccc(F)cc2)c2ncc(Cl)cc2Cl)cc1 [Example 73, 4-(N-(3,5-Dichloropyridin-2-yl)-N-(2-(4-fluorophenoxy)ethyl)sulfamoyl)benzoic acid] | 10000 to 30000
4 | COc1cccc(N(C(C)c2cc(OC)ccc2OC)S(=O)(=O)c2ccccc2F)c1 (centres unmarked) [Example 90, N-(1-(2,5-Dimethoxyphenyl)ethyl)-2-fluoro-N-(3-methoxyphenyl)benzene-sulfonamide] | 1000 to 10000
5 | COc1ccc(N(C(C)c2ccc(C)cc2)S(=O)(=O)c2cc(Cl)ccc2F)cc1 (centres unmarked) [Example 134, 5-Chloro-2-fluoro-N-(4-methoxyphenyl)-N-(1-p-tolylethyl)benezene-sulfonamide] | 1000 to 10000
6 | CC(=O)Nc1ccc(S(=O)(=O)N(Cc2ccccc2)c2ccccn2)cc1 [Example 107, N-(4-(N-Benzyl-N-(pyridin-2-yl)sulfamoyl)phenyl)acetamide] | 1000 to 10000
7 | O=C(O)c1cccc(S(=O)(=O)N(Cc2ccccc2)c2ccccc2)c1 [Example 116, 3-(N-Benzyl-N-phenylsulfamoyl)benozic acid] | 10000 to 30000
8 | COc1ccc(N(C(C)c2ccccc2OC)S(=O)(=O)c2ccc(C)cc2)cc1 (centres unmarked) [Example 89, N-(4-Methoxyphenyl)-N-(1-(2-methoxyphenyl)ethyl)-4-methylbenzene-sulfonamide] | 1000 to 10000
9 | Cc1cccc(N(C(C)c2ccccc2F)S(=O)(=O)c2cc(F)ccc2C)c1 (centres unmarked) [Example 99, 5-Fluoro-N-(1-(2-fluoro-phenyl)ethyl)-2-methyl-N-m-tolylbenzenesulfonamide] | 1000 to 10000
10 | COc1ccccc1C(C)N(c1cccc(F)c1)S(=O)(=O)c1ccc(C)c(Cl)c1 (centres unmarked) [Example 105, 3-Chloro-N-(3-fluorophenyl)-N-(1-(2-methoxyphenyl)ethyl)-4-methylbenzene-sulfonamide] | 1000 to 10000
11 | CCOc1ccccc1N(Cc1ccc(Cl)cc1)S(=O)(=O)c1cccc(C(=O)O)c1 [Example 125, 3-(N-(4-Chlorobenzyl)-N-(2-ethoxyphenyl)sulfamoyl) benzoic acid] | 1000 to 10000
12 | Cc1ccc(S(=O)(=O)N(Cc2ccccc2)c2ccccn2)cc1 [Example 106, N-Benzyl-4-methyl-N-(pyridin-2-yl) benzenesulfonamide] | 1000 to 10000
13 | Cc1cccc(N(C(C)c2ccccc2F)S(=O)(=O)c2ccc(F)cc2C)c1 (centres unmarked) [Example 98, 4-Fluoro-N-(1-(2-fluorophenyl)ethyl)-2-methyl-N-m-tolylbenzenesulfonamide] | 1000 to 10000

Now from value to molecule:

Row | IC50 [nM] | SMILES
14 | 1000 to 10000 | COc1cccc(C(C)N(c2cccc(OC)c2)S(=O)(=O)c2ccc(C)c(Cl)c2)c1 (centres unmarked) [Example 102, 3-Chloro-N-(3-methoxyphenyl)-N-(1-(3-methoxy-phenyl)ethyl)-4-methyl benzenesulfonamide]
15 | < 1000 | O=C(O)c1ccc(S(=O)(=O)N(Cc2ccccc2)c2ncc(C(F)(F)F)cc2Cl)c(Cl)c1 [Example 181, 4-(N-Benzyl-N-(3-chloro-5-(trifluoromethyl)pyridin-2-yl)sulfamoyl)-3-chlorobenzoic acid]
16 | 1000 to 10000 | O=C(O)c1ccc(Cl)c(S(=O)(=O)N(Cc2ccccc2)c2ccccc2Cl)c1 [Example 120, 3-(N-Benzyl-N-(2-chlorophenyl)sulfamoyl)-4-chlorobenzoic acid]
17 | < 1000 | CN(C)S(=O)(=O)NCc1ccc(S(=O)(=O)N(Cc2ccccc2)c2ncc(C(F)(F)F)cc2Cl)cc1 [Example 178, N-Benzyl-N-(3-chloro-5-(trifluoromethyl)pyridin-2-yl)-4-(((N,N-dimethylsulfamoyl)amino)methyl)benzenesulfonamide]
18 | < 1000 | N#Cc1ccc(CN(c2ncc(C(F)(F)F)cc2Cl)S(=O)(=O)c2ccc(C(=O)O)cc2)cc1 [Example 33, 4-(N-(3-Chloro-5-(trifluoromethyl)pyridin-2-yl)-N-(4-cyanobenzyl)sulfamoyl)benzoic acid]
19 | < 1000 | Cc1cc(Cl)cnc1N(Cc1ccc(Cl)c(C(F)(F)F)c1)S(=O)(=O)c1ccc(C(=O)O)cc1 [Example 79, 4-(N-(4-Chloro-3-(trifluoromethyl)benzyl)-N-(5-chloro-3-methylpyridin-2-yl)sulfamoyl)benzoic acid]
20 | < 1000 | O=C(O)c1ccc(S(=O)(=O)N(Cc2ccc(Cl)c(Cl)c2)c2ncc(C(F)(F)F)cc2Cl)cc1 [Example 47, 4-(N-(3-Chloro-5-(trifluoromethyl)pyridin-2-yl)-N-(3,4-dichlorobenzyl)sulfamoyl)benzoic acid]
21 | < 1000 | O=C(O)c1ccc(S(=O)(=O)N(Cc2ccc(Cl)c(F)c2)c2ncc(C(F)(F)F)cc2Cl)cc1 [Example 65, 4-(N-(4-Chloro-3-fluorobenzyl)-N-(3-chloro-5-(trifluoromethyl)pyridin-2-yl)sulfamoyl)benzoic acid]
22 | < 1000 | O=C(O)c1ccc(S(=O)(=O)N(Cc2ccc(F)cc2F)c2ncc(C(F)(F)F)cc2Cl)cc1 [Example 26, 4-(N-(3-Chloro-5-(trifluoromethyl)pyridin-2-yl)-N-(2,4-difluorobenzyl)sulfamoyl)benzoic acid]
23 | < 1000 | C[Si](C)(C)c1ccc(CN(c2ncc(C(F)(F)F)cc2Cl)S(=O)(=O)c2ccc(C(=O)O)cc2)cc1 [Example 140, 4-(N-(3-Chloro-5-(trifluoromethyl)pyridin-2-yl)-N-(4-(trimethylsilyl)benzyl)sulfamoyl)benzoic acid]
24 | < 1000 | O=C(O)c1ccc(S(=O)(=O)N(Cc2ccc(C(F)(F)F)nc2)c2ncc(C(F)(F)F)cc2Cl)cc1 [Example 160, 4-(N-(3-Chloro-5-(trifluoromethyl)pyridin-2-yl)-N-((6-(trifluoromethyl)pyridin-3-yl)methyl)sulfamoyl)benzoic acid]
25 | < 1000 | O=C(O)c1ccc(S(=O)(=O)N(Cc2ccccc2)c2ncc(C(F)(F)F)cc2Cl)c(F)c1 [Example 190, 4-(N-Benzyl-N-(3-chloro-5-(trifluoromethyl)pyridin-2-yl)sulfamoyl)-3-fluorobenzoic acid]
26 | < 1000 | Cc1ccc(CN(c2ncc(C(F)(F)F)cc2Cl)S(=O)(=O)c2ccc(C(=O)O)cc2)cc1 [Example 27, 4-(N-(3-Chloro-5-(trifluoromethyl)pyridin-2-yl)-N-(4-methylbenzyl)sulfamoyl)benzoic acid]
27 | < 1000 | O=C(O)c1ccc(S(=O)(=O)N(CC2CCCC2)c2ncc(C(F)(F)F)cc2Cl)cc1 [Example 192, 4-(N-(3-Chloro-5-(trifluoromethyl)pyridin-2-yl)-N-(cyclopentylmethyl)sulfamoyl)benzoic acid]
28 | < 1000 | O=C(O)c1ccc(S(=O)(=O)N(Cc2ccc(F)c(Cl)c2)c2ncc(C(F)(F)F)cc2Cl)cc1 [Example 71, 4-(N-(3-Chloro-4-fluorobenzyl)-N-(3-chloro-5-(trifluoromethyl)pyridin-2-yl)sulfamoyl)benzoic acid]
29 | < 1000 | O=C(O)c1ccc(S(=O)(=O)N(Cc2ccccc2)c2ccc(C(F)(F)F)cc2Cl)cc1 [Example 56, 4-(N-Benzyl-N-(2-chloro-4-(trifluoromethyl)phenyl)sulfamoyl)benzoic acid]
